Where two headings read alike, the source gives them in different places.
Tests used:
HER2 = target: T1, HER2 (Homo sapiens, UniProt P04626); assay: Inhibitory effect (in vitro) on HER2 phosphorylation activity; assay type: biochemical; conditions: recombinant human HER2, ATP 5 μM, 25° C. 30 minutes
T1 construct: purchased Carna Biosciences, Inc
In short: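 Purified recombinant human HER2 phosphorylating 5-FAM-labeled ProfilerPro Peptide 22 substrate, compounds serially diluted in DMSO. Reaction stopped with EDTA at 30 mM final; unphosphorylated and phosphorylated peptides separated and detected by microchannel capillary electrophoresis.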

[1] = Evaluation of brain penetration properties; assay type: in vivo, BALB/cA mice; conditions: mouse, 0.5 hours after oral 50 mg/kg/day, BALB/cA mice; for Kp at 0.5 h: read-out: Kp value (Compound concentration in brain/plasma)
[2] = Evaluation of oral absorbability; assay type: in vivo, BALB/cA mice; conditions: mouse; plasma, oral 50 mg/kg/day, BALB/cA mice
Ba/F3-HER2insYVMA cells = Ba/F3-HER2insYVMA cells (Homo sapiens, UniProt P04626, DUP772-775, cells depend on it); assay: Growth inhibitory activity against HER2 exon 20 insertion mutant expressing cell line; assay type: cell-based, mouse; conditions: 3 days, CellTiter-Glo 2.0, read-out: HER2ex20insYVMA cell growth inhibitory activity IC50 value
SK-BR-3 cells = assay: Growth inhibitory activity against HER2 expressing cell line SK-BR-3; assay type: cell-based; conditions: Homo sapiens, SK-BR-3, 72 h; 3 days, CellTiter-Glo 2.0
In short: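 SK-BR-3 cells in McCoy's 5a with 10% FBS, pre-cultured 1 day, then exposed to compound (final DMSO 0.2%) for 3 days at 37° C, 5% CO2. Viability by CellTiter-Glo 2.0 luminescence; growth inhibition % = (C−T)/C×100 versus untreated wells.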

NCI-N87 cells = assay: Growth inhibitory activity against HER2 expressing cell line NCI-N87; assay type: cell-based; conditions: Homo sapiens, NCI-N87, 72 h; 3 days, CellTiter-Glo 2.0
[3] = brain, read-out: Compound concentration in brain
[4] = plasma, read-out: Compound concentration in plasma

T1 sequence (P04626 23-1255): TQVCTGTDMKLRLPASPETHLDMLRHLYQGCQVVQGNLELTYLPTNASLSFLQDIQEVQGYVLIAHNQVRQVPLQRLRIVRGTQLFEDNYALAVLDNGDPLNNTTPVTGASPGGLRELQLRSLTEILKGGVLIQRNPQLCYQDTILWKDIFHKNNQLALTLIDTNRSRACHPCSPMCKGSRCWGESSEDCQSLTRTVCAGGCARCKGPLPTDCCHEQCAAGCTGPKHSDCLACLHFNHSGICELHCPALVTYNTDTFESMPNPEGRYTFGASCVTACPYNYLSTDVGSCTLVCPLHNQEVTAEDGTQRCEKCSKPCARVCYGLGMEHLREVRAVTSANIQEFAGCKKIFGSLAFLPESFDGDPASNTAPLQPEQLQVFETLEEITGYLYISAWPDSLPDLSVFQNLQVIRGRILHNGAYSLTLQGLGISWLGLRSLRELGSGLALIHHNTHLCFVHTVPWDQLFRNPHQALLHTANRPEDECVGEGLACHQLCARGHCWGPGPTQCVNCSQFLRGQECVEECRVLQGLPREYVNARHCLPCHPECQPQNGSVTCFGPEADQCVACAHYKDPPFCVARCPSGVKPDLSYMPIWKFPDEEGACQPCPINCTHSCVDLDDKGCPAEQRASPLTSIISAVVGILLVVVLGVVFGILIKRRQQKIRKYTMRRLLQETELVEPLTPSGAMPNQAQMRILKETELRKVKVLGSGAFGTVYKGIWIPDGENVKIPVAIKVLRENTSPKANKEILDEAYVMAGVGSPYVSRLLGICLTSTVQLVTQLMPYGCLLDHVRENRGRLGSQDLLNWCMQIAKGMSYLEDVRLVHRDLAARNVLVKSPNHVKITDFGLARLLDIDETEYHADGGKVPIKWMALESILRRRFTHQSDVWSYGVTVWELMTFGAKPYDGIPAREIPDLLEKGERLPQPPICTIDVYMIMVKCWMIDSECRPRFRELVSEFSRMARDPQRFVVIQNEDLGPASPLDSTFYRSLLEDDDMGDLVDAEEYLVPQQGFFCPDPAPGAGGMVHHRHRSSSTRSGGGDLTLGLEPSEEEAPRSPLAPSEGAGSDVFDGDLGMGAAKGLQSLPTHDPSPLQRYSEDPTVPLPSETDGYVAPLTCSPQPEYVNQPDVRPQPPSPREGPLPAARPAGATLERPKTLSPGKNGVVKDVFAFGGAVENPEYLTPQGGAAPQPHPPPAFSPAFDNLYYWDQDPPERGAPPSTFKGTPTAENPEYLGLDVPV
Sequence of Ba/F3-HER2insYVMA cells (P04626 with tags, fused parts or gaps DUP772-775): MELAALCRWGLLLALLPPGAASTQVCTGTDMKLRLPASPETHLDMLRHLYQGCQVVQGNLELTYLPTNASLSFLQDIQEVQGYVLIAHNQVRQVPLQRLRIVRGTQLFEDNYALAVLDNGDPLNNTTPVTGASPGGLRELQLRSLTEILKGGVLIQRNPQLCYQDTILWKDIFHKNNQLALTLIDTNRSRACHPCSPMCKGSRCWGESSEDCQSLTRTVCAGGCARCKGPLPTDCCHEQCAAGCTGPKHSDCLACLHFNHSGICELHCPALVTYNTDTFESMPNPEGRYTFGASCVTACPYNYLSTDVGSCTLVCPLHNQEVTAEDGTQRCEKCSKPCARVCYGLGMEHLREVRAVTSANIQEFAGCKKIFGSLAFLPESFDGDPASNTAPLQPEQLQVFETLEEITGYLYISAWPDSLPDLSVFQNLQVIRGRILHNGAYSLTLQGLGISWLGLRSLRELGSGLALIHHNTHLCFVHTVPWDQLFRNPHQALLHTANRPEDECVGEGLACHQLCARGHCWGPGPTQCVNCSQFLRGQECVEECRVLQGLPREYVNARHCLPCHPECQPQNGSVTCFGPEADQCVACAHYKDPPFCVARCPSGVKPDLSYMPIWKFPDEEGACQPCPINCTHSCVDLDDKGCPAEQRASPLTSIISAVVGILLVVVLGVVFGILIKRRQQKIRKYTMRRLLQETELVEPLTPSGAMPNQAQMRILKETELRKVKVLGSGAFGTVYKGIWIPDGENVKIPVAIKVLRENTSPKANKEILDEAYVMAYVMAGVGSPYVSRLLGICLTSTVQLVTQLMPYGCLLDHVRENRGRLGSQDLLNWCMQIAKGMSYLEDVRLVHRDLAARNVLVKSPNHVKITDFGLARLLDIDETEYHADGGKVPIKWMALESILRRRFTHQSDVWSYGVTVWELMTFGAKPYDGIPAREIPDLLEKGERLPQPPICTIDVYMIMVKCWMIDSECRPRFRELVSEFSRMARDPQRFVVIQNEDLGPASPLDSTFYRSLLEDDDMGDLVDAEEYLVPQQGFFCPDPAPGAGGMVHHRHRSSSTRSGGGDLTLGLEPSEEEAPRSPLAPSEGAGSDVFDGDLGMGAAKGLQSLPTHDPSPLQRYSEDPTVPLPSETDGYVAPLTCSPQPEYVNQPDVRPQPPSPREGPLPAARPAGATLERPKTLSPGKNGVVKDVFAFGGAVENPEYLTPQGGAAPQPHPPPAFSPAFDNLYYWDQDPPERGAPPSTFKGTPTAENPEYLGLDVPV

| SMILES | IC50 (HER2) [nM] | concentration at 0.5 h [1, 3] [µM] | Kp at 0.5 h ([1]; brain) | concentration at 0.5 h [1, 4] [µM] | AUC(0-t) [2] [µM·h] | GI50 (Ba/F3-HER2insYVMA cells) [nM] | IC50 (SK-BR-3 cells) [nM] | IC50 (NCI-N87 cells) [nM] |
| --- | --- | --- | --- | --- | --- | --- | --- | --- |
| C=CC(=O)N1C[C@H](n2c(C#CC3CC3)c(C(=O)N[C@H](C)c3ccccc3)c3c(N)ncnc32)C[C@@H]1C [Example 11, 7-((3R,5S)-1-acryloyl-5-methylpyrrolidin-3-yl)-4-amino-6-(cyclopropylethynyl)-N—((R)-1-phenylethyl)-7H-pyrrolo[2,3-d]pyrimidine-5-carboxamide] | 3.2 | 2.7 | 0.23 | 12 | 31 | 29 | 6.6 | 9.9 |
| C=CC(=O)N1C[C@H](n2c(C#CC(C)(C)C)c(C(=O)N[C@H](C)c3ccccc3)c3c(N)ncnc32)C[C@@H]1C [Example 12, 7-((3R,5S)-1-acryloyl-5-methylpyrrolidin-3-yl)-4-amino-6-(3,3-dimethylbut-1-yn-1-yl)-N—((R)-1-phenylethyl)-7H-pyrrolo[2,3-d]pyrimidine-5-carboxamide] | 3.4 | 3.2 | 0.29 | 11 | 36 | 43 | 17 | 15 |
| C=CC(=O)N1C[C@H](n2c(C#CC(C)(C)OC)c(C(=O)N[C@H](C)c3ccccc3)c3c(N)ncnc32)C[C@@H]1C [Example 13, 7-((3R,5S)-1-acryloyl-5-methylpyrrolidin-3-yl)-4-amino-6-(3-methoxy-3-methylbut-1-yn-1-yl)-N—((R)-1-phenylethyl)-7H-pyrrolo[2,3-d]pyrimidine-5-carboxamide] | 5.2 | 2.8 | 0.22 | 13 | 18 | 23 | 14 | 11.7 |
| C=CC(=O)N1C[C@H](n2c(C#CCC)c(C(=O)N[C@H](C)c3ccccc3)c3c(N)ncnc32)C[C@@H]1C [Example 14, 7-((3R,5S)-1-acryloyl-5-methylpyrrolidin-3-yl)-4-amino-6-(but-1-yn-1-yl)-N—((R)-1-phenylethyl)-7H-pyrrolo[2,3-d]pyrimidine-5-carboxamide] | 2.2 | 2.1 | 0.21 | 9.9 | 27 | 27 | 8.1 | 9.1 |
| C=CC(=O)N1C[C@H](n2c(C#CC)c(C(=O)N[C@H](C)c3ccccc3)c3c(N)ncnc32)C[C@@H]1CC [Example 16, 7-((3R,5S)-1-acryloyl-5-ethylpyrrolidin-3-yl)-4-amino-N—((R)-1-phenylethyl)-6-(prop-1-yn-1-yl)-7H-pyrrolo[2,3-d]pyrimidine-5-carboxamide] | 3.3 | 4.4 | 0.35 | 12 | 15 | 9.7 | 1.4 | 0.9 |
| C=CC(=O)N1C[C@H](n2c(C#CC3CC3)c(C(=O)N[C@H](C)c3ccccc3)c3c(N)ncnc32)C[C@@H]1CC [Example 17, 7-((3R,5S)-1-acryloyl-5-ethylpyrrolidin-3-yl)-4-amino-6-(cyclopropylethynyl)-N—((R)-1-phenylethyl)-7H-pyrrolo[2,3-d]pyrimidine-5-carboxamide] | 2.9 | 6.5 | 0.39 | 17 | 21 | 20 | 4 | 2.2 |
| C=CC(=O)N1C[C@H](n2c(C#CC3CC3)c(C(=O)N[C@H](C)c3ccccc3)c3c(N)ncnc32)C[C@@H]1COC [Example 18, 7-((3R,5R)-1-acryloyl-5-(methoxymethyl)pyrrolidin-3-yl)-4-amino-6-(cyclopropylethynyl)-N—((R)-1-phenylethyl)-7H-pyrrolo[2,3-d]pyrimidine-5-carboxamide] | 2.3 | 1.6 | 0.22 | 7.7 | 15 | 14 | 3.4 | 2.6 |

Source: patent US11078207B2, “Substituted pyrrolo[2,3-d]pyrimidines as HER2 inhibitors” (TAIHO PHARMACEUTICAL CO., LTD., priority 2019, dated 2021)
